Experiment: xn = mol fraction of the nth substance listed
Settings: 101 kPa, Liquid; for mass density: Pycnometric method

OCC(O)CO [glycerol] + OCCO
Settings	mass density [kg/m3]	viscosity [mPa·s]
298.15 K, x1 = 0.1001	1129.2	25.1
298.15 K, x1 = 0.2002	1147.2	37.4
298.15 K, x1 = 0.3001	1164	55
298.15 K, x1 = 0.4002	1180.2	82.8
298.15 K, x1 = 0.4991	1195	121.4
298.15 K, x1 = 0.6011	1209.4	184.2
298.15 K, x1 = 0.7015	1222.6	272.9
298.15 K, x1 = 0.7981	1234.5	405.9
298.15 K, x1 = 0.8961	1246.1	611.8
298.15 K, x1 = 1	1257.8	943.8
303.15 K, x1 = 0.1001	1126.3	20.7
303.15 K, x1 = 0.2002	1144.4	30.3
303.15 K, x1 = 0.3001	1161.2	43.1
303.15 K, x1 = 0.4002	1177.3	64.2
303.15 K, x1 = 0.4991	1192.2	91.4
303.15 K, x1 = 0.6011	1206.7	134
303.15 K, x1 = 0.7015	1219.7	195
303.15 K, x1 = 0.7981	1231.5	285.9
303.15 K, x1 = 0.8961	1243.2	422.7
303.15 K, x1 = 1	1254.7	628.9
308.15 K, x1 = 0.1001	1122.9	17
308.15 K, x1 = 0.2002	1141.2	24.1
308.15 K, x1 = 0.3001	1158.2	33.9
308.15 K, x1 = 0.4002	1174.5	48.5
308.15 K, x1 = 0.4991	1189.5	69.4
308.15 K, x1 = 0.6011	1204	100.2
308.15 K, x1 = 0.7015	1217	142.4
308.15 K, x1 = 0.7981	1229.1	206.2
308.15 K, x1 = 0.8961	1240.7	299.9
308.15 K, x1 = 1	1252.2	431.9
313.15 K, x1 = 0.1001	1119.9	14
313.15 K, x1 = 0.2002	1138.2	19.6
313.15 K, x1 = 0.3001	1155.2	27
313.15 K, x1 = 0.4002	1171.6	38.2
313.15 K, x1 = 0.4991	1186.7	52.6
313.15 K, x1 = 0.6011	1201.3	75.2
313.15 K, x1 = 0.7015	1214.3	107
313.15 K, x1 = 0.7981	1226.5	145.2
313.15 K, x1 = 0.8961	1238	204.6
313.15 K, x1 = 1	1249.4	295.9
318.15 K, x1 = 0.1001	1116.3	11.7
318.15 K, x1 = 0.2002	1134.7	16.1
318.15 K, x1 = 0.3001	1151.8	21.7
318.15 K, x1 = 0.4002	1168.2	30.6
318.15 K, x1 = 0.4991	1183.3	41.1
318.15 K, x1 = 0.6011	1197.8	57.3
318.15 K, x1 = 0.7015	1210.9	81
318.15 K, x1 = 0.7981	1223.1	108.2
318.15 K, x1 = 0.8961	1234.7	148.4
318.15 K, x1 = 1	1245.8	185.8
323.15 K, x1 = 0.1001	1113.4	9.65
323.15 K, x1 = 0.2002	1131.8	13.1
323.15 K, x1 = 0.3001	1148.7	17.9
323.15 K, x1 = 0.4002	1165.2	24.4
323.15 K, x1 = 0.4991	1180.1	33.6
323.15 K, x1 = 0.6011	1194.6	45.3
323.15 K, x1 = 0.7015	1207.9	62
323.15 K, x1 = 0.7981	1219.9	82.4
323.15 K, x1 = 0.8961	1231.2	111
323.15 K, x1 = 1	1242.3	151.2
328.15 K, x1 = 0.1001	1109.4	8.31
328.15 K, x1 = 0.2002	1128	11
328.15 K, x1 = 0.3001	1145.1	14.6
328.15 K, x1 = 0.4002	1161.7	20.1
328.15 K, x1 = 0.4991	1176.7	26.5
328.15 K, x1 = 0.6011	1191.4	36
328.15 K, x1 = 0.7015	1204.7	48.1
328.15 K, x1 = 0.7981	1216.9	64.4
328.15 K, x1 = 0.8961	1228.3	84.6
328.15 K, x1 = 1	1239.3	108.4
333.15 K, x1 = 0.1001	1106	7.06
333.15 K, x1 = 0.2002	1124.6	9.17
333.15 K, x1 = 0.3001	1141.8	12.4
333.15 K, x1 = 0.4002	1158.4	16.4
333.15 K, x1 = 0.4991	1173.5	21.5
333.15 K, x1 = 0.6011	1188.2	28.4
333.15 K, x1 = 0.7015	1201.5	37.6
333.15 K, x1 = 0.7981	1213.8	49.4
333.15 K, x1 = 0.8961	1225.3	66.2
333.15 K, x1 = 1	1236.1	84.8
338.15 K, x1 = 0.1001	1102.8	6.1
338.15 K, x1 = 0.2002	1121.4	7.81
338.15 K, x1 = 0.3001	1138.6	10.5
338.15 K, x1 = 0.4002	1155.1	13.8
338.15 K, x1 = 0.4991	1170.2	18.1
338.15 K, x1 = 0.6011	1185	23.5
338.15 K, x1 = 0.7015	1198.3	30.7
338.15 K, x1 = 0.7981	1210.6	39.5
338.15 K, x1 = 0.8961	1222.2	50.9
338.15 K, x1 = 1	1232.8	62.2

From the NIST ThermoML archive (doi:10.1021/je900938b)
